Experimental data: patent US8642585B2, “Indanyloxydihydrobenzofuranylacetic acids” (Boehringer Ingelheim International GmbH, priority 2012, dated 2014)

Target: human GPR40 receptor (Homo sapiens, UniProt O14842)
Experiment: Assay II: IP1 accumulation (IPOne HTRF) in 1321N1 cells stably expressing human GPR40
Assay type: cell-based
Conditions: 1321N1 cells expressing human GPR40, stimulation 1 h at 37° C., 5% CO2, LiCl 50 mM
Procedure: IP1 accumulation measurements using the IPOne assay system—1321N1 cells stably expressing human GPR40 receptor (Euroscreen, Belgium) are seeded 24 h before the assay in white 384-well plates in culture medium containing 10% FCS, 1% Na-Pyruvate and 400 μg/mL G418. IP1 is assayed according to the manufacturers description (Cisbio Bioassays, France). In brief, the assay is started by substitution of the culture medium by stimulation buffer (Hepes 10 mM, CaCl2 1 mM, MgCl2 0.5 mM, KCl 4.2 mM, NaCl 146 mM, glucose 5.5 mM and LiCl 50 mM, pH 7.4). Cells are stimulated for 1 h at 37° C., 5% CO2 by addition of the compounds that are diluted in stimulation buffer containing LiCl. Assays are stopped by adding HTRF-conjugates (IP1-d2 and Anti-IP1 cryptate Tb) and lysis buffer, provided by the manufacturer. After an incubation time of 1 h at room temperature plates are measured using an EnVision™, Perkin Elmer. The obtained fluorescence ratios at 665/615 nM are then used to calculate the pEC50 values using Assay Explorer 3.3 Software (Accelrys, Inc.) by interpolation using an IP1 reference curve and subsequent sigmoidal curve fitting allowing for a variable hill slope.

Sequence of human GPR40 receptor (O14842 whole entry): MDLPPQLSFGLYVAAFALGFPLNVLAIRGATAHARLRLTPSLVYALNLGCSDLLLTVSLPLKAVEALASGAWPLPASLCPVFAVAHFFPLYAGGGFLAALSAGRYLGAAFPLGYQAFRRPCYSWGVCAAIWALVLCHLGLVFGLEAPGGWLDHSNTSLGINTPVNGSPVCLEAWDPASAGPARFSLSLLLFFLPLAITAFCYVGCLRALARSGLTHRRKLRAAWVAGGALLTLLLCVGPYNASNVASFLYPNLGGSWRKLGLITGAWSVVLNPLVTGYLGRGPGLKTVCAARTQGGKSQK

Row | SMILES | EC50
1 | Cc1cc(OCC(C)(C)C#N)cc(C)c1-c1ccc(F)c2c1CC[C@H]2Oc1ccc2c(c1)OC[C@H]2CC(=O)O [Example 64, 2-((S)-6-((R)-4-(4-(2-Cyano-2-methylpropoxy)-2,6-dimethylphenyl)-7-fluoro-2,3-dihydro-1H-inden-1-yloxy)-2,3-dihydrobenzofuran-3-yl)acetic acid] | 8 nM
2 | Cc1cc(-c2cn(C)c(C)n2)cc(C)c1-c1ccc(F)c2c1CC[C@H]2Oc1ccc2c(c1)OC[C@H]2CC(=O)O [Example 131, {(S)-6-[(R)-4-(2,6-Dimethyl-4-(1,2-dimethyl-imidazol-4-yl)-phenyl)-7-fluoro-indan-1-yloxy]-2,3-dihydro-benzofuran-3-yl}-acetic acid] | 2 nM
3 | Cc1cc(OC(C)(C)CO)cc(C)c1-c1ccc(F)c2c1CC[C@H]2Oc1ccc2c(c1)OC[C@H]2CC(=O)O [Example 55, ((S)-6-{(R)-7-Fluoro-4-[4-(2-hydroxy-1,1-dimethyl-ethoxy)-2,6-dimethyl-phenyl]-indan-1-yloxy}-2,3-dihydro-benzofuran-3-yl)-acetic acid] | 25 nM
4 | Cc1cc(OC2CCC(C)(O)C2)cc(C)c1-c1ccc(F)c2c1CC[C@H]2Oc1ccc2c(c1)OC[C@H]2CC(=O)O (single isomer, unassigned) [Example 79] | 5 nM
5 | Cc1cc(-c2nnnn2C)cc(C)c1-c1ccc(F)c2c1CC[C@H]2Oc1ccc2c(c1)OC[C@H]2CC(=O)O [Example 96, 2-((S)-6-((R)-4-(2,6-Dimethyl-4-(1-methyl-1H-tetrazol-5-yl)phenyl)-7-fluoro-2,3-dihydro-1H-inden-1-yloxy)-2,3-dihydrobenzofuran-3-yl)acetic acid] | 20 nM
6 | Cc1cc(OC(C)(C)C(N)=O)cc(C)c1-c1ccc(F)c2c1CC[C@H]2Oc1ccc2c(c1)OC[C@H]2CC(=O)O [Example 56, ((S)-6-{(R)-4-[4-(1-Carbamoyl-1-methyl-ethoxy)-2,6-dimethyl-phenyl]-7-fluoro-indan-1-yloxy}-2,3-dihydro-benzofuran-3-yl)-acetic acid] | 43 nM
7 | Cc1cc(C2CCOCC2)cc(C)c1-c1ccc(F)c2c1CC[C@H]2Oc1ccc2c(c1)OC[C@H]2CC(=O)O [Example 80, 2-((S)-6-((R)-4-(2,6-Dimethyl-4-(tetrahydro-2H-pyran-4-yl)phenyl)-7-fluoro-2,3-dihydro-1H-inden-1-yloxy)-2,3-dihydrobenzofuran-3-yl)acetic acid] | 11 nM
8 | CC(=O)NCCc1cc(C)c(-c2ccc(F)c3c2CC[C@H]3Oc2ccc3c(c2)OC[C@H]3CC(=O)O)c(C)c1 [Example 72, 2-((S)-6-((R)-4-(4-(2-Acetamidoethyl)-2,6-dimethylphenyl)-7-fluoro-2,3-dihydro-1H-inden-1-yloxy)-2,3-dihydrobenzofuran-3-yl)acetic acid] | 23 nM
9 | Cc1cc(C2CCOC2)cc(C)c1-c1ccc(F)c2c1CC[C@H]2Oc1ccc2c(c1)OC[C@H]2CC(=O)O (stereo partly drawn) [Example 87, 2-((3S)-6-((1R)-4-(2,6-Dimethyl-4-(tetrahydrofuran-3-yl)phenyl)-7-fluoro-2,3-dihydro-1H-inden-1-yloxy)-2,3-dihydrobenzofuran-3-yl)acetic acid] | 24 nM
10 | Cc1cc(OCC2CCCS(=O)(=O)C2)cc(C)c1-c1ccc(F)c2c1CC[C@H]2Oc1ccc2c(c1)OC[C@H]2CC(=O)O (stereo partly drawn) [Example 51, ((S)-6-{(R)-4-[4-(1,1-Dioxo-hexahydro-1-thiopyran-3-ylmethoxy)-2,6-dimethyl-phenyl]-7-fluoro-indan-1-yloxy}-2,3-dihydro-benzofuran-3-yl)-acetic acid] | 7 nM
11 | Cc1cc(-c2cc(C)c(-c3ccc(F)c4c3CC[C@H]4Oc3ccc4c(c3)OC[C@H]4CC(=O)O)c(C)c2)cc(C)n1 [Example 121, {(S)-6-[(R)-4-(2,6-Dimethyl-4-(2,6-dimethyl-pyridin-4-yl)-phenyl)-7-fluoro-indan-1-yloxy]-2,3-dihydro-benzofuran-3-yl}-acetic acid] | 2 nM
12 | Cc1cc(OCc2ccn(C)c(=O)c2)cc(C)c1-c1ccc(F)c2c1CC[C@H]2Oc1ccc2c(c1)OC[C@H]2CC(=O)O [Example 146, 2-((S)-6-((R)-4-(2,6-dimethyl-4-((1-methyl-2-oxo-1,2-dihydropyridin-4-yl)methoxy)phenyl)-7-fluoro-2,3-dihydro-1H-inden-1-yloxy)-2,3-dihydrobenzofuran-3-yl)acetic acid] | 7 nM
13 | Cc1nc(-c2cc(C)c(-c3ccc(F)c4c3CC[C@H]4Oc3ccc4c(c3)OC[C@H]4CC(=O)O)c(C)c2)no1 [Example 134, {(S)-6-[(R)-4-(2,6-Dimethyl-4-(5-methyl-[1,2,4]oxadiazol-3-yl)-phenyl)-7-fluoro-indan-1-yloxy]-2,3-dihydro-benzofuran-3-yl}-acetic acid] | 3 nM
14 | COc1nccc(-c2cc(C)c(-c3ccc(F)c4c3CC[C@H]4Oc3ccc4c(c3)OC[C@H]4CC(=O)O)c(C)c2)n1 [Example 93] | 4 nM
15 | Cc1cc(OC[C@H](C)CS(C)(=O)=O)cc(C)c1-c1ccc(F)c2c1CC[C@H]2Oc1ccc2c(c1)OC[C@H]2CC(=O)O [Example 37, ((S)-6-{(R)-7-Fluoro-4-[4-((S)-3-methanesulfonyl-2-methyl-propoxy)-2,6-dimethyl-phenyl]-indan-1-yloxy}-2,3-dihydro-benzofuran-3-yl)-acetic acid] | 6 nM
16 | Cc1cc(-c2ccncn2)cc(C)c1-c1ccc(F)c2c1CC[C@H]2Oc1ccc2c(c1)OC[C@H]2CC(=O)O [Example 91, 2-((S)-6-((R)-4-(2,6-Dimethyl-4-(pyrimidin-4-yl)phenyl)-7-fluoro-2,3-dihydro-1H-inden-1-yloxy)-2,3-dihydrobenzofuran-3-yl)acetic acid] | 3 nM
17 | Cc1cc(OCCCCS(C)(=O)=O)cc(C)c1-c1ccc(F)c2c1CC[C@H]2Oc1ccc2c(c1)OC[C@H]2CC(=O)O [Example 43, ((S)-6-{(R)-7-Fluoro-4-[4-(4-methanesulfonyl-butoxy)-2,6-dimethyl-phenyl]-indan-1-yloxy}-2,3-dihydro-benzofuran-3-yl)-acetic acid] | 22 nM
18 | Cc1cc(O[C@@H]2CCCN(S(C)(=O)=O)C2)cc(C)c1-c1ccc(F)c2c1CC[C@H]2Oc1ccc2c(c1)OC[C@H]2CC(=O)O [Example 49, ((S)-6-{(R)-7-Fluoro-4-[4-((R)-1-methanesulfonyl-piperidin-3-yloxy)-2,6-dimethyl-phenyl]-indan-1-yloxy}-2,3-dihydro-benzofuran-3-yl)-acetic acid] | 10 nM
19 | Cc1cncc(-c2cc(C)c(-c3ccc(F)c4c3CC[C@H]4Oc3ccc4c(c3)OC[C@H]4CC(=O)O)c(C)c2)c1 [Example 111, {(S)-6-[(R)-4-(2,6-Dimethyl-4-(5-methyl-pyridin-3-yl)-phenyl)-7-fluoro-indan-1-yloxy]-2,3-dihydro-benzofuran-3-yl}-acetic acid] | 4 nM
20 | Cc1cc(CCC(C)(C)O)cc(C)c1-c1ccc(F)c2c1CC[C@H]2Oc1ccc2c(c1)OC[C@H]2CC(=O)O [Example 67, 2-((S)-6-((R)-7-Fluoro-4-(4-(3-hydroxy-3-methylbutyl)-2,6-dimethylphenyl)-2,3-dihydro-1H-inden-1-yloxy)-2,3-dihydrobenzofuran-3-yl)acetic acid] | 7 nM
21 | Cc1cc(C(=O)NCC(C)(C)O)cc(C)c1-c1ccc(F)c2c1CC[C@H]2Oc1ccc2c(c1)OC[C@H]2CC(=O)O [Example 54, ((S)-6-{(R)-7-Fluoro-4-[4-(2-hydroxy-2-methyl-propylcarbamoyl)-2,6-dimethyl-phenyl]-indan-1-yloxy}-2,3-dihydro-benzofuran-3-yl)-acetic acid] | 13 nM
22 | Cc1cc(OCC(C)(C)CS(C)(=O)=O)cc(C)c1-c1ccc(F)c2c1CC[C@H]2Oc1ccc2c(c1)OC[C@H]2CC(=O)O [Example 77, 2-((S)-6-((R)-4-(4-(2,2-Dimethyl-3-(methylsulfonyl)propoxy)-2,6-dimethylphenyl)-7-fluoro-2,3-dihydro-1H-inden-1-yloxy)-2,3-dihydrobenzofuran-3-yl)acetic acid] | 10 nM
23 | Cc1cc(-c2cccnc2)cc(C)c1-c1ccc(F)c2c1CC[C@H]2Oc1ccc2c(c1)OC[C@H]2CC(=O)O [Example 112, {(S)-6-[(R)-4-(2,6-Dimethyl-4-pyridin-3-yl-phenyl)-7-fluoro-indan-1-yloxy]-2,3-dihydro-benzofuran-3-yl}-acetic acid] | 5 nM
24 | Cc1cc(-c2cc(C)c(-c3ccc(F)c4c3CC[C@H]4Oc3ccc4c(c3)OC[C@H]4CC(=O)O)c(C)c2)nc(C)n1 [Example 115, {(S)-6-[(R)-4-(2,6-Dimethyl-4-(2,6-dimethyl-pyrimidin-4-yl)-phenyl)-7-fluoro-indan-1-yloxy]-2,3-dihydro-benzofuran-3-yl}-acetic acid] | 2 nM
25 | Cc1cc(OCc2ccn(C)n2)cc(C)c1-c1ccc(F)c2c1CC[C@H]2Oc1ccc2c(c1)OC[C@H]2CC(=O)O [Example 145, 2-((S)-6-((R)-4-(2,6-dimethyl-4-((1-methyl-1H-pyrazol-3-yl)methoxy)phenyl)-7-fluoro-2,3-dihydro-1H-inden-1-yloxy)-2,3-dihydrobenzofuran-3-yl)acetic acid] | 15 nM
26 | Cc1cc(OCc2nccn2C)cc(C)c1-c1ccc(F)c2c1CC[C@H]2Oc1ccc2c(c1)OC[C@H]2CC(=O)O [Example 149, 2-((S)-6-((R)-4-(2,6-dimethyl-4-((1-methyl-1H-imidazol-2-yl)methoxy)phenyl)-7-fluoro-2,3-dihydro-1H-inden-1-yloxy)-2,3-dihydrobenzofuran-3-yl)acetic acid] | 12 nM
